The values that follow come from patent US10551313B1, “Surface plasmon resonance based mechanical sensing of beating heart cells” (The Florida International University Board of Trustees, priority 2019, dated 2020).

Each structure is given as a SMILES string.

In the assay the test system is living cardiomyocytes. Kind of assay: SPR based sensing of beating (cardiac activity) of cardiomyocytes cultured on the SPR sensing surface. The format is cell-based, rat. Conditions: injection of 10 μM, SPR resonance angle shift vs time, compared with control group without injection (FIG. 5). An excerpt: In one particular embodiment, rat cardiomyocytes were isolated from neonatal rat hearts from day one through day three and cultured on the SPR sensing surface 100 of the SPR based sensing system. Subsequently, the spontaneous contractions, expansions, or movements of the rat cardiomyocytes under normal living conditions were monitored by using the SPR based sensing system. In an embodiment, the SPR based sensing system can sense the beating characteristics of the living cardiomyocytes after the living cardiomyocytes is stimulated by an injection of a stimulator such as, for example, adenosine triphosphate (ATP). In another embodiment, the SPR based sensing system can sense the beating characteristics of the living cardiomyocytes after the living cardiomyocytes is inhibited by an injection of an inhibitor such as, for example, blebbistatin.

Regarding `Nc1ncnc2c1ncn2[C@@H]1O[C@H](COP(=O)(O)OP(=O)(O)OP(=O)(O)O)[C@@H](O)[C@H]1O` [ATP, adenosine triphosphate], the “cardiac activity (beating frequency) of the cardiomyocytes” value is given as “higher cardiac activity (faster beats with frequencies higher than the baseline frequencies)”.

For the compound `Cc1ccc2c(c1)C(=O)C1(O)CCN(c3ccccc3)C1=N2` (centres unmarked) [blebbistatin], the “cardiac activity (beating frequency) of the cardiomyocytes” value was “lower cardiac activity (slower beats with frequencies lower than the baseline frequencies)”.
